In patent US20260258050A1, “IMMUNOMODULATOR” (HITGEN INC., priority 2023, published 2026):

Assays:
Human IL-17A [1] = biological target: T1, Human IL-17A (Homo sapiens, UniProt Q16552); test: IL-17A enzyme-linked immunosorbent assay (competitive ELISA, IL-17A/IL-17Ra receptor-ligand binding); set-up: purchased Sino Biological Inc. 12047-H07B; conditions: human IL-17A coated plate, human IL-17Ra, read-out: IC50, inhibitory activity of compounds on human IL-17A
T1 sequence (Q16552 20-155 limits assumed): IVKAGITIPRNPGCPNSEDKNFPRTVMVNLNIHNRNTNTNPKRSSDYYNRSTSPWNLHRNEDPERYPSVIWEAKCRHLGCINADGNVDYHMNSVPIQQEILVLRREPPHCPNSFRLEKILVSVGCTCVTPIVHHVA
Experimental: Experimental Example 1 IL-17A Enzyme-Linked Immunosorbent Assay (ELISA)
The inhibitory effects of human IL-17A inhibitors on receptor-ligand binding were quantitatively determined by a competitive enzyme-linked immunosorbent assay (ELISA). The ELISA was performed through the following steps.
Human IL-17A (Sino Biological Inc., Cat #12047-H07B) was diluted with coating buffer (50 mM phosphate-buffered saline (PBS), pH 7.4) to give an IL-17A concentration of 0.2 μg/ml. 100 μL of the resulting solution was added to each well of a 96-well plate, and the plate was incubated at 37° C. for 30 min. In a blank group, 100 100 μL of the coating buffer was added instead of the IL-17A solution.
The plate was washed four times with 10 mM phosphate-buffered saline containing 0.05% Tween-20 (PBST, pH 7.4). 200 μL of PBST was used per well for each wash. After the final wash, the plate was tapped dry on absorbent paper.
Fresh 5% (w/v) skim milk solution was prepared before the experiment. For example, 5 g of skim milk powder (Bio-Rad, 170-6404) was completely dissolved in 100 mL of 10 mM PBST. 200 μL of the 5% (w/v) skim milk solution was added to each well, and the plate was incubated on a shaker at 25° C. for 30 min.
(S4) Preparation of 100× to-be-Tested Compound Solutions
During step (S3), the to-be-tested compound solutions were prepared, respectively. Each powdered compound was dissolved in dimethyl sulfoxide (DMSO) to reach a storage concentration of 10 mM. The to-be-tested compound solutions were then serially diluted four-fold with DMSO to obtain nine storage concentrations ranging from […].
(S6) Pre-incubation of IL-17A with to-be-tested compound solutions
89 μL of PBST and 1 μL of each of the to-be-tested compound solutions were added to each well and mixed. The plate was pre-incubated at 25° C. for 10 min. In the blank group and the control group, 1 μL of DMSO was added instead of the to-be-tested compound solutions.
(S7) Incubation with Human Interleukin-17 Receptor a (IL-17Ra)
10 μL of 16 nM human IL-17Ra (Sino Biological Inc., Cat #10895-H03H) was added, followed by incubation on a shaker at 25° C. for 30 min. The receptor solution was prepared in 10 mM PBST.
(S9) Incubation with Horseradish Peroxidase-Conjugated Antibody
100 μL of mouse anti-Fc tag horseradish peroxidase (HRP)-conjugated antibody (Sino Biological Inc., Cat #10702-MM01T-H) was added to each well. The plate was incubated on a shaker at 25° C. for 30 min. The antibody was diluted with 5% (w/v) skim milk solution at 1:5,000 (v/v).
100 μL of 3,3′,5,5′-tetramethylbenzidine (TMB) substrate solution (BD, Cat #555214) was added to each well. Substrate A and substrate B were freshly mixed at a volume ratio of 1:1 before use. The plate was incubated in the dark at 25° C. for 5-15 min.
(S12) Termination and Detection
The color reaction was terminated by addition of 2.5 M hydrochloric acid (HCl). Absorbance was measured at 450 nm using a BMG PHERStar microplate reader.
(S13) Calculation of Half-Maximal Inhibitory Concentration (IC50)
The relative percent residual activity at each compound concentration was calculated according to Equation 1. The IC50 value of each test compound was then calculated in GraphPad 6 using the equation for log(inhibitor) versus normalized response with variable slope, as shown in Equation 2.
relative percent residual activity (%)=[(absorbance of sample−absorbance of blank group)/(absorbance of control group−absorbance of blank group)]%. Equation 1: […]
The compounds prepared in the above examples were tested for IL-17A inhibitory activity according to the above method.

Human IL-17A [2] = biological target: T1, Human IL-17A; test: Inhibition of human IL-17A protein-induced GROα/CXCL1 production in HT-29 cells; assay type: cell-based; set-up: purchased R&D 317-ILB; host or cells: added exogenously to HT-29 cells; conditions: 30 ng/mL human IL-17A protein, 48 h, GROα in supernatant by ELISA kit, read-out: Inhibitory IC50 of compounds on HT-29 cell GROα/CXCL1
Experimental: Experiment Example 3 Inhibition of Human IL-17A Protein-Induced GROα/CXCL1 Production in HT-29 Cells by Compounds
This assay was conducted to evaluate the ability of the compounds to inhibit human IL-17A protein-induced production of the chemokine growth-regulated oncogene alpha/C-X-C motif chemokine ligand 1 (GROα/CXCL1) in HT-29 cells.
Human colorectal adenocarcinoma epithelial HT-29 cells (Chengdu Zhongyuan Gongchuang Technology Co., Ltd.) were seeded into a 96-well plate at a density of 5×10^4 cells per well and were cultured overnight in an incubator at 37° C.
30 ng/mL of human IL-17A protein (R&D, #317-ILB) was mixed with gradient concentrations of the IL-17A small-molecule inhibitor, or with […] of a positive control IL-17A antibody (R&D, #AF-317-NA). These mixtures were incubated at 37° C. for 1 h and were then added to the plate. The mixtures were co-incubated with the HT-29 cells at 37° C. for 48 h. Thereafter, the level of GROα in the cell culture supernatant was determined using a GROα ELISA kit (Cisbio, #62HCXC1PEG).
The inhibitory activity of each compound was expressed as the half-maximal inhibitory concentration (IC50) for inhibition of GROα/CXCL1 production in HT-29 cells.

| IC50 (Human IL-17A [1]) [nM] | IC50 (Human IL-17A [2]) [nM] | Compound |
| --- | --- | --- |
| ≤ 50 | ≤ 100 | Cc1[nH]nc2c1-c1cc(F)c(NC(=O)[C@@H](NC(=O)c3ccnn3C(C)C)C(C3CC3)C3CC3)cc1CN(CC(F)F)C(C)C2 (mixture of isomers) [compound 178] |
| 50 to 150 | 100 to 500 | CSCC(C)n1nccc1C(=O)N[C@H](C(=O)Nc1cc2c(cc1F)-c1c(n[nH]c1C)CCOC2)C(C1CC1)C1CC1 (single isomer, unassigned) [compound 40a] |
| ≤ 50 | 100 to 500 | CSCC(C)n1nccc1C(=O)N[C@H](C(=O)Nc1cc2c(cc1F)-c1c(n[nH]c1C)CCOC2)C(C1CC1)C1CC1 (single isomer, unassigned) [compound 40b] |
| 50 to 150 | 100 to 500 | CCC1Cc2n[nH]c(C)c2-c2cc(F)c(NC(=O)[C@@H](NC(=O)c3ccnn3C(C)C)C(C3CC3)C3CC3)cc2CO1 (single isomer, unassigned) [compound 120a] |
| ≤ 50 | 100 to 500 | CCC1Cc2n[nH]c(C)c2-c2cc(F)c(NC(=O)[C@@H](NC(=O)c3ccnn3C(C)C)C(C3CC3)C3CC3)cc2CO1 (single isomer, unassigned) [compound 120b] |
| ≤ 50 | 100 to 500 | CCC(C)n1nccc1C(=O)N[C@H](C(=O)Nc1cc2c(cc1F)-c1c(n[nH]c1C)CCOC2)C(C1CC1)C1CC1 (single isomer, unassigned) [compound 123a] |
| ≤ 50 | 100 to 500 | CCC(C)n1nccc1C(=O)N[C@H](C(=O)Nc1cc2c(cc1F)-c1c(n[nH]c1C)CCOC2)C(C1CC1)C1CC1 (single isomer, unassigned) [compound 123b] |
|  | ≤ 100 | Cc1[nH]nc2c1-c1cc(F)c(NC(=O)[C@@H](NC(=O)c3ccnn3C(C)C)C(C3CC3)C3CC3)cc1C(=O)NC(C)C2 (single isomer, unassigned) [compound 187a] |
|  | ≤ 100 | Cc1[nH]nc2c1-c1cc(F)c(NC(=O)[C@@H](NC(=O)c3ccnn3C(C)C)C(C3CC3)C3CC3)cc1C(=O)NC(C)C2 (single isomer, unassigned) [compound 187b] |
| ≤ 50 | 100 to 500 | Cc1[nH]nc2c1-c1cnc(NC(=O)[C@@H](NC(=O)c3ccnn3C(C)C(F)F)C(C3CC3)C3CC3)cc1COCC2 (single isomer, unassigned) [compound 190a] |
| 50 to 150 | 100 to 500 | Cc1[nH]nc2c1-c1cnc(NC(=O)[C@@H](NC(=O)c3ccnn3C(C)C(F)F)C(C3CC3)C3CC3)cc1COCC2 (single isomer, unassigned) [compound 190b] |
| ≤ 50 | 100 to 500 | Cc1[nH]nc2c1-c1cc(F)c(NC(=O)[C@@H](NC(=O)c3ccnn3C(C)C)[C@H]3CC[C@H](C)CC3)cc1COCC2 [compound 45] |
| ≤ 50 | 100 to 500 | CCn1nccc1C(=O)N[C@H](C(=O)Nc1cc2c(cc1F)-c1c(n[nH]c1C)CCOC2)C1CCCCC1 [compound 49] |
| ≤ 50 | 100 to 500 | CCn1nccc1C(=O)N[C@H](C(=O)Nc1cc2c(cn1)-c1c(n[nH]c1C)CCOC2)C(C1CC1)C1CC1 [compound 53] |
| ≤ 50 | 100 to 500 | Cc1[nH]nc2c1-c1cc(F)c(NC(=O)[C@@H](NC(=O)c3ccnn3CC3CC(F)(F)C3)C(C3CC3)C3CC3)cc1COCC2 [compound 64] |
| 50 to 150 | 100 to 500 | Cc1[nH]nc2c1-c1cc(F)c(NC(=O)[C@@H](NC(=O)c3ccnn3CC3(F)CC3)C(C3CC3)C3CC3)cc1COCC2 [compound 79] |

| IC50 (Human IL-17A [1]) [nM] | IC50 (Human IL-17A [2]) [nM] | Compound |
| --- | --- | --- |
| ≤ 50 | ≤ 100 | Cc1[nH]nc2c1-c1cc(F)c(NC(=O)[C@@H](NC(=O)c3ccnn3CCCN3CCOCC3)C(C3CC3)C3CC3)cc1COCC2 [compound 92] |
| ≤ 50 | 100 to 500 | Cc1[nH]nc2c1-c1cc(F)c(NC(=O)[C@@H](NC(=O)c3ccnn3C(C)C)C(C3CC3)C3CC3)cc1CCCC2 [compound 130] |
| ≤ 50 | 100 to 500 | CCN1CCc2n[nH]c(C)c2-c2cc(F)c(NC(=O)[C@@H](NC(=O)c3ccnn3CC)C(C3CC3)C3CC3)cc2C1 [compound 157] |
| ≤ 50 | ≤ 100 | Cc1[nH]nc2c1-c1cc(F)c(NC(=O)[C@@H](NC(=O)c3conc3C(C)C)C(C3CC3)C3CC3)cc1CN(CC(F)F)C(=O)C2 [compound 171] |
| ≤ 50 | ≤ 100 | Cc1[nH]nc2c1-c1cc(F)c(NC(=O)[C@@H](NC(=O)c3ccnn3CCCF)C(C3CC3)C3CC3)cc1CN(CC(F)F)C(=O)C2 [compound 172] |
|  | 100 to 500 | Cc1c2c(nn1COCC[Si](C)(C)C)CC(=O)N(Cc1ccccc1)Cc1cc(N)c(F)cc1-2 [compound 183] |
| ≤ 50 |  | Cc1[nH]nc2c1-c1cnc(NC(=O)[C@@H](NC(=O)c3cnnn3C(C)C)C(C3CC3)C3CC3)cc1CN(C1CC1)CC2 [compound 220] |
| ≤ 50 |  | Cc1[nH]nc2c1-c1cnc(NC(=O)[C@@H](NC(=O)/C(F)=C\C3CC3)C(C3CC3)C3CC3)cc1CN(C1CC1)CC2 [compound 221] |
| ≤ 50 |  | Cc1[nH]nc2c1-c1cnc(NC(=O)[C@@H](NC(=O)/C(F)=C\C(C)C)C(C3CC3)C3CC3)cc1CN(C1CC1)CC2 [compound 222] |
| ≤ 50 |  | CC(C)=C(F)C(=O)N[C@H](C(=O)Nc1cc2c(cn1)-c1c(n[nH]c1C)CCN(C1CC1)C2)C(C1CC1)C1CC1 [compound 223] |
| ≤ 50 |  | C=C(F)C(=O)N[C@H](C(=O)Nc1cc2c(cn1)-c1c(n[nH]c1C)CCN(C1CC1)C2)C(C1CC1)C1CC1 [compound 224] |
| ≤ 50 |  | Cc1[nH]nc2c1-c1cc(F)c(NC(=O)[C@@H](NC(=O)c3cccc(-c4ccn[nH]4)c3)C(C3CC3)C3CC3)cc1COCC2 [compound 228] |
| ≤ 50 |  | Cc1[nH]nc2c1-c1cc(F)c(NC(=O)[C@@H](NC(=O)c3cnnn3C(C)C)C(C3CC3)C3CC3)cc1COCC2 [compound 231] |
| ≤ 50 |  | Cc1[nH]nc2c1-c1cnc(NC(=O)[C@@H](NC(=O)c3cnnn3C(C)C)C(C3CC3)C3CC3)cc1COCC2 [compound 243] |
| 50 to 150 |  | Cc1[nH]nc2c1-c1cnc(NC(=O)[C@@H](NC(=O)OC3CCC3)C(C3CC3)C3CC3)cc1COCC2 [compound 247] |
